Measured values taken from PubChem BioAssay AID1794812.
Results filed as inconclusive are left out.

Target: Excitatory amino acid transporter 3 (Homo sapiens) (UniProt P43005)
Assay: EAAT3 transporter activation by amino acid substrates – membrane potential dye, HEK-293 overexpressing cells, dose response (AID 1794812)
Settings: HEK-293 SLC1A1 OE, FLIPR membrane potential dye

Chain of Excitatory amino acid transporter 3 (Homo sapiens) (P43005 whole entry, looked up): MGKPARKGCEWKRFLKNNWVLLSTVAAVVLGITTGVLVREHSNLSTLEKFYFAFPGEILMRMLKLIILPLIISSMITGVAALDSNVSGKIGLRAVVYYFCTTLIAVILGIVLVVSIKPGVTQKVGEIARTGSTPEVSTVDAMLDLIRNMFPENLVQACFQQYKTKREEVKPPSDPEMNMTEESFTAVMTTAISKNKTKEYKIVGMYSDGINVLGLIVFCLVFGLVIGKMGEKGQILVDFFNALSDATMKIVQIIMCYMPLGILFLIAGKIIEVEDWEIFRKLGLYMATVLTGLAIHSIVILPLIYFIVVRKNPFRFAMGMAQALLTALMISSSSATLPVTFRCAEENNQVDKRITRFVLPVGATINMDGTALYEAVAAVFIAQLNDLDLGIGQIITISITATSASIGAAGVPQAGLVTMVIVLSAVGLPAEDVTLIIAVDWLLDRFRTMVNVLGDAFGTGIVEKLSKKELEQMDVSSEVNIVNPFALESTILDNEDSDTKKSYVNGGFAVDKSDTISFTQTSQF

N[C@@H](CS)C(=O)O showed an EC50 of 161 µM.
